Test results taken from publication PMC12396409, “Screening and hit evaluation of a microbial metabolite library against the pathogenic Plasmodium falciparum and Toxoplasma gondii parasites” (International Journal for Parasitology: Drugs and Drug …, 2025).
Where two headings read alike, the source gives them in different places.

Assays:
[1] = test system: P. falciparum 3D7 parasites; test: P. falciparum growth inhibition assay, 2-cycle (120 h treatment), delayed-death screen and dose-response; type: cell-based, Plasmodium falciparum; conditions: for activity at 2 µg/mL: Plasmodium falciparum, 3D7
[2] = test system: P. falciparum 3D7 parasites; test: P. falciparum growth inhibition assay, 1-cycle (72 h treatment), SYBR DNA staining (library screen at 2 μg/mL and dose-response); type: cell-based, Plasmodium falciparum; conditions: for activity at 2 µg/mL: Plasmodium falciparum, 3D7
[3] = test system: T. gondii RH strain (RH-Tub-eYFP) tachyzoites; test: microbe, parasite or virus in culture; type: cell-based, Toxoplasma gondii; conditions: for percent parasite growth at 2 µg/mL: Toxoplasma gondii
[4] = P. falciparum, 120 h, screen at 2 μg/mL, replicate 1
[5] = P. falciparum, 120 h, screen at 2 μg/mL, replicate 2
[6] = P. falciparum, 72 h, screen at 2 μg/mL, replicate 1
[7] = P. falciparum, 72 h, screen at 2 μg/mL, replicate 2
[8] = T. gondii, 72 h, screen at 2 μg/mL, replicate 1
[9] = T. gondii, 72 h, screen at 2 μg/mL, replicate 2
[10] = library screen at 2 μg/mL, 120 h, % growth, replicate 1
[11] = library screen at 2 μg/mL, 120 h, % growth, replicate 2
[12] = library screen at 2 μg/mL, 72 h, % growth, replicate 1
[13] = library screen at 2 μg/mL, 72 h, % growth, replicate 2

Molecule: CCCCCC(O)C1C(=O)OC(C)C(O)C=CC=CC=CC=CC=C(C)C(O)C(O)C(O)CC(O)CC(O)CC(O)CC(O)CC1O (stereo not drawn) [BIA-L1613]
- Pf_120h_%Growth_Rep1 ([1]; P. falciparum 3D7, 120 h, library screen at 2 μg/mL, % growth, replicate 1): 95.83%
- Pf_120h_%Growth_Rep2 ([1]; P. falciparum 3D7, 120 h, library screen at 2 μg/mL, % growth, replicate 2): 112.04%
- Pf_72h_%Growth_Rep1 ([2]; P. falciparum 3D7, 72 h, library screen at 2 μg/mL, % growth, replicate 1): 78.48%
- Pf_72h_%Growth_Rep2 ([2]; P. falciparum 3D7, 72 h, library screen at 2 μg/mL, % growth, replicate 2): 58.30%
- Tg_72h_%Growth_Rep1 ([3]; T. gondii RH, 72 h, library screen at 2 μg/mL, % growth, replicate 1): 108.01%
- Tg_72h_%Growth_Rep2 ([3]; T. gondii RH, 72 h, library screen at 2 μg/mL, % growth, replicate 2): 85.53%

Molecule: CC(=O)N[C@H]1[C@H](O[C@@H]2c3ccc(c(Cl)c3)Oc3cc4cc(c3O)Oc3ccc(cc3Cl)C[C@H]3NC(=O)[C@H](N)c5ccc(O)c(c5)Oc5cc(O)cc(c5)[C@H](NC3=O)C(=O)N[C@H]4C(=O)N[C@H]3C(=O)N[C@@H]2C(=O)N[C@H](C(=O)O)c2cc(O)cc(O[C@H]4O[C@H](CO)[C@@H](O)[C@H](O)[C@@H]4O)c2-c2cc3ccc2O)O[C@H](CO)[C@@H](O)[C@@H]1O [Teicoplanin A3-1]
- Pf_120h_%Growth_Rep1 [1, 4]: 162.68%
- Pf_120h_%Growth_Rep2 [1, 5]: 89.82%
- Pf_72h_%Growth_Rep1 [2, 6]: 83.89%
- Pf_72h_%Growth_Rep2 [2, 7]: 89.40%
- Tg_72h_%Growth_Rep1 [3, 8]: 92.73%
- Tg_72h_%Growth_Rep2 [3, 9]: 87.18%

Molecule: CC1=CCC2CC(CC3(CCC(C)C(C)O3)O2)OC(=O)C2C=C(C)C(O)C3OCC(=CC=CC(C)C1)C23O (stereo not drawn) [BIA-M1051]
- Pf_120h_%Growth_Rep1 ([1]; P. falciparum 3D7, 120 h, parasite screen at 2 μg/mL, % growth, replicate 1): 10.36%
- Pf_120h_%Growth_Rep2 ([1]; P. falciparum 3D7, 120 h, parasite screen at 2 μg/mL, % growth, replicate 2): 24.90%
- Pf_72h_%Growth_Rep1 ([2]; P. falciparum 3D7, 72 h, parasite screen at 2 μg/mL, % growth, replicate 1): 47.24%
- Pf_72h_%Growth_Rep2 ([2]; P. falciparum 3D7, 72 h, parasite screen at 2 μg/mL, % growth, replicate 2): 1.70%
- Tg_72h_%Growth_Rep1 ([3]; T. gondii, 72 h, parasite screen at 2 μg/mL, % growth, replicate 1): 114.92%
- Tg_72h_%Growth_Rep2 ([3]; T. gondii, 72 h, parasite screen at 2 μg/mL, % growth, replicate 2): 98.32%

Molecule: CC(/C=C/C1CC=CC(=O)O1)=C\C(C)C/C=C/C(C)=C/C(C)C(=O)C(C)C(O)C(C)C/C(C)=C/C(=O)O (stereo not drawn) [Anguinomycin A]
- Pf_120h_%Growth_Rep1 [1, 10]: 145.35%
- Pf_120h_%Growth_Rep2 [1, 11]: 79.09%
- Pf_72h_%Growth_Rep1 [2, 12]: 77.34%
- Pf_72h_%Growth_Rep2 [2, 13]: 87.20%
- Tg_72h_%Growth_Rep1 [3, 12]: 87.81%
- Tg_72h_%Growth_Rep2 [3, 13]: 87.77%

Molecule: Eprinomectin
- Pf_120h_%Growth_Rep1 [1, 10]: 33.01%
- Pf_120h_%Growth_Rep2 [1, 11]: 14.57%
- Pf_72h_%Growth_Rep1 [2, 12]: 61.67%
- Pf_72h_%Growth_Rep2 [2, 13]: 29.66%
- Tg_72h_%Growth_Rep1 [3, 12]: 130.43%
- Tg_72h_%Growth_Rep2 [3, 13]: 107.67%

Molecule: C=Cc1cc(OC)c2c(c1)c(=O)oc1c2cc(OC)c2c(O)ccc([C@H]3O[C@@H](C)[C@@H](O)[C@](C)(O)[C@@H]3O)c21 [Chrysomycin A]
- 2) Growth (%) at 120 h ([1]; P. falciparum, 2 μg/mL, 120 h): -1.07%
- Pf_120h_%Growth_Rep1 [1, 4]: 6.31%
- Pf_120h_%Growth_Rep2 [1, 5]: -8.44%
- 1) Growth (%) at 72 h ([2]; P. falciparum, 2 μg/mL, 72 h): 36.94%
- Mean ([2]; P. falciparum, 72 h, 2 μg/mL, mean of both replicates, growth (% of control)): 36.94
- Pf_72h_%Growth_Rep1 [2, 6]: 16.21%
- Pf_72h_%Growth_Rep2 [2, 7]: 57.66%
- Tg_72h_%Growth_Rep1 [3, 8]: 53.94%
- Tg_72h_%Growth_Rep2 [3, 9]: 65.86%

Molecule: [N-]=[N+]=NCC(=O)N[C@H](CO)[C@H](O)c1ccc([N+](=O)[O-])cc1 [Azidamfenicol]
- activity at 2 µg/mL ([1]; library screen at 2 μg/mL, 120 h, % growth, replicate 1, read-out: Pf_120h_%Growth_Rep1): 64.6%
- activity at 2 µg/mL ([1]; library screen at 2 μg/mL, 120 h, % growth, replicate 2, read-out: Pf_120h_%Growth_Rep2): 95.3%
- activity at 2 µg/mL ([2]; library screen at 2 μg/mL, 72 h, % growth, replicate 1, read-out: Pf_72h_%Growth_Rep1): 82.7%
- activity at 2 µg/mL ([2]; library screen at 2 μg/mL, 72 h, % growth, replicate 2, read-out: Pf_72h_%Growth_Rep2): 84.9%
- percent parasite growth at 2 µg/mL ([3]; 72 h, library screen at 2 μg/mL, 72 h, % growth, replicate 1, read-out: Tg_72h_%Growth_Rep1): 129%
- percent parasite growth at 2 µg/mL ([3]; 72 h, library screen at 2 μg/mL, 72 h, % growth, replicate 2, read-out: Tg_72h_%Growth_Rep2): 103%

Molecule: CCC[C@@H]1C[C@@H](C(=O)N[C@@H]([C@H]2O[C@H](SC)[C@H](OP(=O)(O)O)[C@@H](O)[C@H]2O)[C@H](C)Cl)N(C)C1 [Clindamycin 2-phosphate, reference compound]
- 2) Growth (%) at 120 h [1]: 9.80%
- 3) Fold change (72 h/120 h) [1]: 6.9
- Pf_120h_%Growth_Rep1 [1]: 15.54%
- Pf_120h_%Growth_Rep2 [1]: 4.05%
- 1) Growth (%) at 72 h [2]: 67.91%
- Pf_72h_%Growth_Rep1 [2]: 73.78%
- Pf_72h_%Growth_Rep2 [2]: 62.04%
- Tg_72h_%Growth_Rep1 [3]: 25.11%
- Tg_72h_%Growth_Rep2 [3]: 20.67%

Molecule: CC(=O)c1c(O)c(C(C)=O)c(O)c(C(C)=O)c1O [Triacetylphloroglucinol]
- Pf_120h_%Growth_Rep1 [1, 4]: 80.17%
- Pf_120h_%Growth_Rep2 [1, 5]: 112.26%
- Pf_72h_%Growth_Rep1 [2, 6]: 83.84%
- Pf_72h_%Growth_Rep2 [2, 7]: 50.48%
- Tg_72h_%Growth_Rep1 [3, 8]: 132.07%
- Tg_72h_%Growth_Rep2 [3, 9]: 93.42%
